Measurements as given in patent US20080255168A1, “METHODS FOR ADMINISTERING DPD INHIBITORS IN COMBINATION WITH 5-FU AND 5-FU PRODRUGS” (ADHEREX TECHNOLOGIES, INC., priority 2004, published 2008).
Like-named read-outs stand apart in the source and are kept apart here.

Experiments:
[1] = test system: Ward carcinoma tumors; assay: Antitumor activity in rats bearing Ward carcinoma tumors; type: in vivo; details: for Ward carcinoma tumor response: once per week for three weeks
Method: Rats were implanted with Ward carcinoma tumors and were treated with one of the following regimens after their tumors grew to 3,000 mg in weight as previously described (Cao et al., Cancer Res 90:1507-1510, 1993). Rats bearing 3,000 mg of tumor mass were dosed at Day 0, Day 7, and Day 14 with the following treatments.
Group A rats received no treatment. Group B rats were intraperitoneally (ip) dosed with 1 mg/kg eniluracil (time (t)=0) followed by intravenous (iv) 5 mg/kg 5-FU at t=60. Group C rats were dosed ip with 1 mg/kg eniluracil (t=0) followed by 25 mg/kg eniluracil ip at t=55 minutes and by 5 mg/kg 5-FU iv at t=60 minutes. Animals were dosed once per week for three weeks. Eniluracil was also dosed ip at 1 mg/kg to rats in Groups B & C on Days 2 and 3 of each weekly treatment. The treatment for Group C mimicked the clinical trials where high levels of eniluracil were present when 5-FU was dosed.

[2] = test system: HEK 293 cells; assay: Cytotoxicity of 5-FU, MTS proliferation assay; type: cell-based; details: Homo sapiens
Method: (§1) HEK 293 cells were initially treated with eniluracil (10 μM) for 1 hour. After a washout period ranging from 4-48 hours, cells were treated with [6-^14C]-5-FU (66 μM) for 2 hours at 37 degrees C. Controls were HEK 293 cells treated for 2 hours either with [6-^14C]-5-FU (66 μM) alone, or with eniluracil (10 μM) and [6-^14C]-5-FU (66 μM) co-administered together without preincubation. Reverse phase HPLC with radioactivity detection was utilized to quantify [6-^14C]-5-FU catabolites/anabolites present in cell lysates. In a separate set of experiments cytotoxicity of 5-FU at different eniluracil dose schedules was examined. HEK 293 cells were treated with a range of 5-FU concentrations for 72 hours at 37 degrees C. following 1 hour eniluracil (5 μM) preincubation, without eniluracil, or with eniluracil (5 μM) co-administered without preincubation. Cytotoxicity was assessed by the MTS proliferation assay and the EC50 values for 5-FU calculated.

[3] = cited from earlier work
[4] = test system: HEK 293 cells; assay: [6-14C]-FUMP anabolite formation from [6-14C]-5-FU in HEK 293 cells, reverse phase HPLC; type: cell-based; details: eniluracil 10 μM 1 hour, 48 hour washout, then [6-14C]-5-FU 66 μM 2 hours
Method: as §1

[5] = Plasma uridine levels after eniluracil, LC-MS; type: in vivo; details: mice, eniluracil 2, 25 and 100 mg/kg, FIG. 2
Method: While eniluracil inhibition is known to cause an increase in uracil levels due to DPD inhibition, inhibitory effects on other enzymes that anabolize fluoropyrimidines would be expected to quantitatively alter the levels of other anabolites, such as uridine. Eniluracil was administered to mice at 2 mg/kg, 25 mg/kg and 100 mg/kg. Plasma samples were taken at 0 minutes, 15 minutes, 30 minutes, 60 minutes, 2 hours, 24 hours and 48 hours. Uridine levels were determined by LC-MS technology using known techniques and standards were used to validate the assay.

[6] = test system: EpiDerm™ skin model (normal, human-derived epidermal keratinocytes); assay: EpiDerm skin model dermal irritation, MTT conversion assay (ET50); type: cell-based
Excerpt: The EpiDerm™ skin model system (MatTek) was used to assess the potential dermal irritation of eniluracil alone or its formulation. This system consists of normal, human-derived epidermal keratinocytes (NHEK) which have been cultured to form a multilayered, highly differentiated model of the human epidermis. […] The EpiDerm™ system is mitotically and metabolically active. Markers of mature epidermis-specific differentiation such as pro-filaggrin, the K1/K10 cytokeratin pair, involucrin, and type I epidermal transglutaminase have been localized in the model. […] The duration of exposure resulting in a 50% decrease in MTT conversion in test article-treated EpiDerm™ cultures, relative to control cultures, was determined (ET50). Eniluracil was prepared and administered to the test system at the three final concentrations of 1000 μM, 500 μM, and 100 μM, and tested at three exposure times of 8, 20, and 24 hours. The DMSO solvent control was tested at exposure times of 8 and 24 hours. The negative control was tested at exposure times of 4 and 24 hours, and the positive control was tested at exposure times of 4 and 8 hours. The results of the trial, presented in Table 1, confirmed that the three doses of eniluracil were well-tolerated by the EpiDerm™ skin model at topical exposures of up to 24 hours. […] Hydrochloric acid in an amount equivalent to the sodium hydroxide was added to neutralize the ointment. The exposure time control was also exposed in duplicate for 4 and 24 hours. Table 2 below summarizes the ET50 results of the EpiDerm™ assay for the test articles and the positive control, using the negative control results to determine the relative viability.

[7] = target: T1, DPD (Homo sapiens, UniProt Q12882); details: cancer patients, cited from earlier work
T1 construct: 24 hours after one dose of eniluracil, the level of DPD was only 3% of the predose level; host or cells: cancer patients
T1 sequence (Q12882 4-1025): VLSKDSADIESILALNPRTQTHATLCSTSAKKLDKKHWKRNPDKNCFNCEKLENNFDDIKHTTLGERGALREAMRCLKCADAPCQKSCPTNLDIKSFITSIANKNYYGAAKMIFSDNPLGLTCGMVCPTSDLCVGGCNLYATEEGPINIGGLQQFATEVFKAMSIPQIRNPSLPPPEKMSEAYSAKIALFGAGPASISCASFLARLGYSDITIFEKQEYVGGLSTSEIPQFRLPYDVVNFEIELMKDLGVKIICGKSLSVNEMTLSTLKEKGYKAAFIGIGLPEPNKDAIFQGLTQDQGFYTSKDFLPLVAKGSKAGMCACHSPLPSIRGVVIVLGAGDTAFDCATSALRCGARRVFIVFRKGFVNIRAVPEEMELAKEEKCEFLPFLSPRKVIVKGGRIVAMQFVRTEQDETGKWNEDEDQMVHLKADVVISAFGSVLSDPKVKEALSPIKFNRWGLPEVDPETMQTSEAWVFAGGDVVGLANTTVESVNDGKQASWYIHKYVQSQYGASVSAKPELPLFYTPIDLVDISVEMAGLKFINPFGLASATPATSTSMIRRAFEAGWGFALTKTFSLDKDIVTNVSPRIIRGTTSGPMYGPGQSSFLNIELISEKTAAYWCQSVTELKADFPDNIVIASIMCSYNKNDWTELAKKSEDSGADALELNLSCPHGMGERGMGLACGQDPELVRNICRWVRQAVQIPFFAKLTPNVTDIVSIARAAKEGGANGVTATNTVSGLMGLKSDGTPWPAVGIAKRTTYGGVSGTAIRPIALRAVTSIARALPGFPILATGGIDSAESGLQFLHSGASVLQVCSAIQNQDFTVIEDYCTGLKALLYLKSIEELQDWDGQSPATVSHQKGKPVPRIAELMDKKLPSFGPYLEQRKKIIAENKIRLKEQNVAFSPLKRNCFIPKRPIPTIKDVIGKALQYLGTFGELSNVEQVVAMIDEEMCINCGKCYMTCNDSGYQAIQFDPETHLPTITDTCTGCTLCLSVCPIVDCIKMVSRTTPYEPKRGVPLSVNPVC

[8] = cited from earlier work; remark: listed apart in the source

O=c1[nH]cc(F)c(=O)[nH]1 [5-FU, 5-Fluorouracil]
Ward carcinoma tumor response ([1]; Group B: eniluracil 1 mg/kg ip t=0, 5-FU 5 mg/kg iv t=60 min): rapidly eliminated | Ward carcinoma tumor response ([1]; Group C: eniluracil 1 mg/kg ip t=0, eniluracil 25 mg/kg ip t=55 min, 5-FU 5 mg/kg iv t=60 min): decreased only slightly in size | EC50 ([2]; HEK293, 72 h, read-out: EC50 of 5-FU (mean ±SE), 72 hours, 5-FU treatment alone): 311 nM | EC50 ([2]; HEK293, read-out: EC50 of 5-FU (mean ±SE), 72 hours, after 1 hour eniluracil (5 μM) pre-treatment): 264 nM | EC50 ([2]; HEK293, read-out: EC50 of 5-FU (mean ±SE), 72 hours, eniluracil (5 μM) co-administered without preincubation): 308 nM | Half-life of 5-FU ([3]; cancer patients, after 3.7 mg/m^2 eniluracil): 4.5 h | Elimination half-life of 5-FU ([3]; cancer patients, after one dose of eniluracil): 3.5 h | Elimination half-life of 5-FU ([3]; cancer patients, without eniluracil): about 10 minutes

C#Cc1c[nH]c(=O)[nH]c1=O [eniluracil, 5-Ethynyluracil]
Effect of excess eniluracil on antitumor activity of 5-FU ([1]; Group C (extra 25 mg/kg eniluracil at 55 min) versus Group B): greatly diminished | Increase in [6-14C]-FUMP formation versus [6-14C]-5-FU treatment alone [4]: 70% | Increase in [6-14C]-FUMP formation versus eniluracil and [6-14C]-5-FU co-administration [4]: 41% | Plasma uridine levels [5]: increase in uridine levels | Tolerability in the EpiDerm skin model ([6]; 1000, 500 and 100 μM, topical exposures of up to 24 hours): well-tolerated | ET50 ([6]; eniluracil 100 uM): >24 h | ET50 ([6]; eniluracil 500 uM): >24 h | ET50 ([6]; eniluracil 1000 uM): >24 h | Level of DPD, % of the predose level ([7]; 24 hours after one dose of eniluracil): 3% | DPD eliminated ([7]; dose of 0.74 mg/m^2 (about 1 mg total), for prolonged periods): greater than 90% | Elimination half-life for eniluracil ([3]; humans): about 3.5 hours | 5-FU-associated hand-foot syndrome toxicity ([8]; Phase II and Phase III trials, oral eniluracil with 5-FU): abrogated | Toxicity in Phase I clinical trials ([8]; cancer patients, eniluracil eliminating DPD activity): without causing toxicity | Antitumor activity versus standard 5-FU regimen without eniluracil ([8]; two Phase III studies, 28-day eniluracil and 5-FU regimen, colorectal cancer): less antitumor activity
